Test results: US20220386863A1, “SMART CONTACT LENS FOR DIAGNOSIS AND TREATMENT OF DRY EYE SYNDROME” (priority 2020, published 2022)
Where two headings read alike, the source gives them in different places.

Test system: anti-VEGF aptamer
Details: for change in current on injection of VEGF: FET sensor with anti-VEGF aptamer, PBS base current, FIG. 2A
Source text: Electrodes using a gold thin film and silver nanowires were patterned on a silicon substrate using a photolithography method, and a semi-conductive layer was placed between the electrodes. In this case, silver nanowires were used as a material of the semi-conductive layer. Thereafter, an aptamer (anti-VEGF aptamer) capable of being coupled to a dry eye syndrome biomarker was coupled to the semi-conductive layer.
Specifically, a silver nanowire channel was immersed in an 3-aminopropyldimethyl-ethoxysilane (APDES)/ethanol solution to introduce an amine group, and the silver nanowire channel was immersed in a sodium carbonate buffer including 1 wt % succinic anhydride to substitute the amine group with a carboxyl group. Then, after the silver nanowire channel is immersed in a phosphate buffered saline (PBS) solution, 1-ethyl-3(3-dimethyl aminopropyl)carbodiimide hydro-chloride (EDC) and sulfa N-hydroxysuccinimide (sulfa-NHS) were added to form an amide group. An aptamer solution was introduced into the channel, into which the amide group was introduced, to couple the channel and the probe. ?
A VEGF was injected into the sensor in real time to monitor an intensity of a current flowing in the silver nanowire channel.
Specifically, 200 μL of PBS was dropped onto the FET sensor to set a base current for 30 minutes, and then, a change in current generated by injecting a specific concentration of a VEGF was observed. ?

## vascular endothelial growth factor [VEGF]
104 pM VEGF injected
  change in current on injection of VEGF: no difference in current
1.04 nM VEGF injected
  change in current on injection of VEGF: large change
52 nM VEGF injected
  change in current on injection of VEGF: large change
Compared with the initial base current, FIG. 2B
  stabilized current after VEGF injection, averaged per section: higher than an initial base current
